Assay results from patent publication US12590099B2, “Inhibitors of histone deacetylase useful for the treatment or prevention of HIV infection” (Merck Sharp & Dohme LLC, priority 2018, dated 2026).
Like-named read-outs stand apart in the source and are kept apart here.

What was measured:
[1] = system: KARN cells (Jurkat 2C4); assay: cells; assay type: cell-based; conditions: Homo sapiens, Jurkat
Procedure, shortened: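 Jurkat 2C4 (KARN) cells dosed with test compounds up to 40 μM final, 0.4% DMSO, overnight at 5% CO2; luciferase read by Steady-Glo luminescence after 10 min at room temperature. DMSO set as 0% and 2 μM SAHA as 100% induction; 4-parameter fit of percent activation.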

[2] = target: T1, Recombinant human HDAC1 (Homo sapiens, UniProt Q13547); assay: Human HDAC enzyme inhibitor Fluor-de-Lys assay, HDAC1; assay type: biochemical
T1 construct: FLAG (C); made in house
T1 sequence (Q13547 whole entry): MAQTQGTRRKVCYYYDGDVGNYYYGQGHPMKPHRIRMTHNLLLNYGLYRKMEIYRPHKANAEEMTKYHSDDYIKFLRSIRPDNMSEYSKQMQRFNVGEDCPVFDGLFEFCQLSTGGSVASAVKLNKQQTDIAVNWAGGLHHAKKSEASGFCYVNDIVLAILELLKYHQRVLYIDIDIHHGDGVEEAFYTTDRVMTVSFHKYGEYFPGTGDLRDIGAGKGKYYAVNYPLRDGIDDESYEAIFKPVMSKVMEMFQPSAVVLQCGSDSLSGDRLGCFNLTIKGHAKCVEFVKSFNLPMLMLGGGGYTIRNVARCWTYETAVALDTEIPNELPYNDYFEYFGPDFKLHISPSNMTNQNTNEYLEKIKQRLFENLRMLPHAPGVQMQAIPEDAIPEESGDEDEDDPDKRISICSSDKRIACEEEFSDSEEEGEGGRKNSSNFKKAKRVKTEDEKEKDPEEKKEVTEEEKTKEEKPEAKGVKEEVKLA
Procedure, shortened: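 Fluor-de-Lys format at room temperature (23° C.): compounds titrated 10-point, 1:3, preincubated with HDAC before substrate addition; HDAC1 run at 0.3 nM enzyme with 20 μM BML-KI104. Developer with excess HDAC inhibitor ends the reaction, and trypsin-liberated AMC fluorescence is the read-out.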

[3] = read-out: Karn EC50 (nM) 0.1% NHS, 0.1% normal human serum, luciferase induction, 100% = 2 μM SAHA
[4] = read-out: Karn EC50 (nM) 5% NHS, 5% normal human serum, luciferase induction, 100% = 2 μM SAHA
[5] = recombinant human HDAC1, Fluor-de-Lys assay
[6] = read-out: Karn EC50 (nM) 0.1% NHS, 0.1% normal human serum
[7] = read-out: Karn EC50 (nM) 5% NHS, 5% normal human serum

With CCC(=O)CCCCC[C@H](NC(=O)[C@H]1CC12CCN(C)CC2)c1ncc(-c2cn(C)c3ccccc23)[nH]1 [Compound 264] as the compound, how does the EC50 [1, 3] read?
Its EC50 is 78 nM.

And the EC50 [1, 4]?
The EC50 was 143 nM.

And the IC50 [2, 5]?
The IC50 was 1.79 nM.

CCC(=O)CCCCC[C@H](NC(=O)[C@H]1CC12CCN(C)CC2)c1ncc(-c2cnc3cccnc3c2)[nH]1 [Compound 259] was tested. Which EC50 [1, 3] did it give?
Its EC50 is 7930 nM.

And the EC50 [1, 4]?
The EC50 was 8180 nM.

And the IC50 [2, 5]?
The IC50 was 23.8 nM.

CCC(=O)CCCCC[C@H](NC(=O)C1CC12CCNCC2)c1nnc(-c2cc3ccccc3nc2OC)o1 (some centres unmarked) [Compound 303] was tested. Which EC50 [1, 3] did it give?
Its EC50 is 2430 nM.

And the EC50 [1, 4]?
The EC50 was 4260 nM.

What about the IC50 [2, 5] of the same compound?
The IC50 was 17.2 nM.

Which EC50 [1, 3] does the source give for CCC(=O)CCCCC[C@H](NC(=O)C1CC12CCN(CC)CC2)c1nc(-c2ccc(F)cc2)[nH]c1-c1ccn(C)c1 (some centres unmarked) [Compound 251] here?
The EC50 was 143 nM.

And the EC50 [1, 4]?
Its EC50 is 216 nM.

What about the IC50 [2, 5] of the same compound?
The IC50 was 2.73 nM.

Which EC50 [1, 3] does the source give for CCC(=O)CCCCC[C@H](NC(=O)[C@H]1CC12CCN(C)CC2)c1[nH]c(-c2ccc(F)cc2)nc1Cl [Compound 240] here?
Its EC50 is 247 nM.

What about the EC50 [1, 4] of the same compound?
The EC50 was 346 nM.

What about the IC50 [2, 5] of the same compound?
The IC50 was 5.73 nM.

Which results are given for CCC(=O)CCCCC[C@H](NC(=O)[C@@H]1CC12CCN(C)CC2)c1nnc(-c2cc3ccccc3nc2OC)o1 [Compound 305]?
EC50 [1, 3]: 2200 nM; EC50 [1, 4]: 3090 nM; IC50 [2, 5]: 47.3 nM

For CCC(=O)CCCCCC(NC(=O)C1CCC2(CC1)OC(=O)c1cnccc12)c1nnc(-c2cc3ccccc3nc2OC)o1 (centres unmarked) [Compound 364], which EC50 [1, 3] is on record?
The EC50 was 1770 nM.

And the EC50 [1, 4]?
Its EC50 is 4310 nM.

What about the IC50 [2, 5] of the same compound?
The IC50 was 63 nM.

Which results are given for CCC(=O)CCCCCC(NC(=O)C1CC12CCN(CC)CC2)c1nc(-c2ccc(F)cc2)[nH]c1-c1ccnn1C (centres unmarked) [Compound 253]?
EC50 [1, 3]: 1870 nM; EC50 [1, 4]: 2340 nM; IC50 [2, 5]: 30.4 nM

With CCC(=O)CCCCC[C@H](NC(=O)[C@H]1CC12CCN(CC)CC2)c1ncc(-c2ccc(-n3cccn3)cc2)o1 [Compound 95] as the compound, how does the EC50 [1, 6] read?
Its EC50 is 522 nM.

What about the EC50 [1, 7] of the same compound?
The EC50 was 747 nM.

And the IC50 [2]?
The IC50 was 5.26 nM.

With CCC(=O)CCCCC[C@H](NC(=O)C1CC12CCN(CC)CC2)c1nc(-c2ccc(F)cc2)[nH]c1-c1cn[nH]c1 (some centres unmarked) [Compound 249] as the compound, how does the EC50 [1, 3] read?
Its EC50 is > 40000 nM.

And the IC50 [2, 5]?
The IC50 was 17.4 nM.

With CCC(=O)CCCCC[C@H](NC(=O)CC1CC2(C1)CN(C)C2)c1nnc(-c2cc3ccccc3nc2OC)o1 [Compound 308] as the compound, how does the EC50 [1, 3] read?
Its EC50 is 2690 nM.

And the EC50 [1, 4]?
The EC50 was 3700 nM.

And the IC50 [2, 5]?
Its IC50 is 27.3 nM.

For CCC(=O)CCCCC[C@H](NC(=O)CC1CC2(C1)CN(C(C)=O)C2)c1ncc(-c2ccccc2)[nH]1 [Compound 300, (S)-2-(2-acetyl-2-azaspiro[3.3]heptan-6-yl)-N-(7-oxo-1-(5-phenyl-1H-imidazol-2-yl)nonyl)acetamide], which EC50 [1, 3] is on record?
The EC50 was 9210 nM.

What about the EC50 [1, 4] of the same compound?
Its EC50 is 10200 nM.

And the IC50 [2, 5]?
Its IC50 is 199 nM.

Which EC50 [1, 6] does the source give for CCC(=O)CCCCC[C@H](NC(=O)[C@H]1CC12CCN(C)CC2)c1ncc(-c2ccc3cc(C#N)ccc3c2)[nH]1 [Compound 90] here?
The EC50 was 52 nM.

And the EC50 [1, 7]?
The EC50 was 33 nM.

What about the IC50 [2] of the same compound?
Its IC50 is 0.28 nM.

Which EC50 [1, 3] does the source give for CCC(=O)CCCCC[C@H](NC(=O)C1CC12CCN(CC)CC2)c1nc(-c2ccc(F)cc2)[nH]c1-c1ccsc1 (some centres unmarked) [Compound 250] here?
Its EC50 is 3730 nM.

And the EC50 [1, 4]?
The EC50 was 4100 nM.

And the IC50 [2, 5]?
Its IC50 is 80.7 nM.

For CCC(=O)CCCCC[C@H](NC(=O)[C@H]1CC12CCN(C)CC2)c1ncc(-c2ccc(F)cc2F)[nH]1 [Compound 289], which EC50 [1, 3] is on record?
The EC50 was 1060 nM.

What about the EC50 [1, 4] of the same compound?
Its EC50 is 1090 nM.

What about the IC50 [2, 5] of the same compound?
Its IC50 is 63.1 nM.

CCC(=O)CCCCC[C@H](NC(=O)[C@H]1CC12CCN(C)CC2)c1nc(Cl)c(-c2cc3ccccc3nc2O)[nH]1 [Compound 81, (1S)—N-{(1S)-1-[4-chloro-5-(2-hydroxyquinolin-3-yl)-1H-imidazol-2-yl]-7-oxononyl}-6-methyl-6-azaspiro[2.5]octane-1-carboxamide] was tested. Which EC50 [1, 6] did it give?
Its EC50 is 6430 nM.

And the EC50 [1, 7]?
Its EC50 is 10700 nM.

What about the IC50 [2] of the same compound?
The IC50 was 88.2 nM.

How did the EC50 [1, 3] turn out when CCC(=O)CCCCC[C@H](N)c1ncc(-c2cc3ccc(=O)n(C)c3cc2OC)o1 [Compound 224] was run?
Its EC50 is 5000 nM.

What about the EC50 [1, 4] of the same compound?
The EC50 was 6970 nM.

What about the IC50 [2, 5] of the same compound?
The IC50 was 38.7 nM.

Which results are given for CCC(=O)CCCCC[C@H](NC(=O)[C@H]1CC12CCN(C)CC2)c1ncc(-c2ccc(C(F)(F)F)cc2)[nH]1 [Compound 284]?
EC50 [1, 3]: 606 nM; EC50 [1, 4]: 598 nM; IC50 [2, 5]: 18.6 nM

What does the source list for CCC(=O)CCCCC[C@H](NC(=O)C1=NOC2(CCN(CC3CC3)CC2)C1)c1ncc(-c2cc3ccc(C)nc3cc2OC)o1 [Compound 225]?
EC50 [1, 3]: 217 nM; EC50 [1, 4]: 247 nM; IC50 [2, 5]: 0.6 nM

For CCCC(=O)CCCCC[C@H](NC(=O)[C@H]1CC12CCN(C)CC2)c1ncc(-c2ccc(F)cc2)[nH]1 [Compound 239], which EC50 [1, 3] is on record?
The EC50 was 324 nM.

And the EC50 [1, 4]?
The EC50 was 581 nM.

And the IC50 [2, 5]?
Its IC50 is 13.9 nM.

Which EC50 [1, 3] does the source give for CCC(=O)CCCCC[C@H](NC(=O)CC1CC2(C1)CN(C)C2)c1ncc(-c2cc3ccccc3nc2OC)[nH]1 [Compound 314] here?
Its EC50 is 131 nM.

And the EC50 [1, 4]?
Its EC50 is 811 nM.

What about the IC50 [2, 5] of the same compound?
Its IC50 is 1.03 nM.
